# In ChEMBL document CHEMBL5352419, “Design, synthesis, and biological evaluation of tetrahydroquinoline amphiphiles as membrane-targeting antimicrobials against pathogenic bacteria and fungi” (Eur J Med Chem, 2022):
# The source made the active and inactive calls. The calls are words filed in the database; no cut-off is given here.
# Key:
# Candida albicans [1] = assay: Antimicrobial activity against Candida albicans CMCC98001 assessed as fungal growth inhibition incubated for 48 hrs by Sabouraud Dextrose broth based dilution assay; assay type: functional
# Staphylococcus aureus [2] = assay: Antimicrobial activity against methicillin-resistant Staphylococcus aureus NCTC10442 assessed as bacterial growth inhibition incubated for 24 hrs by Muller Hinton broth based dilution assay; assay type: functional
# [3] = Hemolytic activity in rabbit RBC incubated for 1 hr by absorbance based microplate reader assay; assay type: toxicity, cell-based, Oryctolagus cuniculus, Erythrocyte; conditions: rabbit red blood cells (erythrocytes)
# Acinetobacter baumannii = assay: Antimicrobial activity against Acinetobacter baumannii R2889 assessed as bacterial growth inhibition incubated for 24 hrs by Muller Hinton broth based dilution assay; assay type: functional
# Klebsiella pneumoniae = assay: Antimicrobial activity against Klebsiella pneumoniae ATCC14581 assessed as bacterial growth inhibition incubated for 24 hrs by Muller Hinton broth based dilution assay; assay type: functional
# Escherichia coli [4] = assay: Antimicrobial activity against Escherichia coli ATCC25922 assessed as bacterial growth inhibition incubated for 24 hrs in presence of 3220 ug/mL Na+ by Muller Hinton broth based dilution assay; assay type: functional
# Candida albicans [5] = assay: Antimicrobial activity against Candida albicans ATCC10231 assessed as fungal growth inhibition incubated for 48 hrs in presence of 3220 ug/mL Na+ by Sabouraud Dextrose broth based dilution assay; assay type: functional
# Staphylococcus aureus [6] = assay: Antimicrobial activity against Staphylococcus aureus ATCC29213 assessed as bacterial growth inhibition incubated for 24 hrs in presence of 175.5 ug/mL K+ by Muller Hinton broth based dilution assay; assay type: functional
# Candida albicans [7] = assay: Antimicrobial activity against Candida albicans ATCC10231 assessed as fungal growth inhibition incubated for 48 hrs in presence of 175.5 ug/mL K+ by Sabouraud Dextrose broth based dilution assay; assay type: functional
# Candida albicans [8] = assay: Antimicrobial activity against Candida albicans CMCC98001 assessed as fungal growth inhibition incubated for 48 hrs in presence of 175.5 ug/mL K+ by Sabouraud Dextrose broth based dilution assay; assay type: functional
# Staphylococcus aureus [9] = assay: Antimicrobial activity against Staphylococcus aureus ATCC29213 assessed as bacterial growth inhibition incubated for 24 hrs in presence of 100 ug/mL Ca2+ by Muller Hinton broth based dilution assay; assay type: functional
# Candida albicans [10] = assay: Antimicrobial activity against Candida albicans ATCC10231 assessed as fungal growth inhibition incubated for 48 hrs in presence of 100 ug/mL Ca2+ by Sabouraud Dextrose broth based dilution assay; assay type: functional
# Staphylococcus aureus [11] = assay: Antimicrobial activity against methicillin-resistant Staphylococcus aureus NCTC10442 assessed as bacterial growth inhibition incubated for 24 hrs in presence of 24.3 ug/mL Mg2+ by Muller Hinton broth based dilution assay; assay type: functional
# Escherichia coli [12] = assay: Antimicrobial activity against Escherichia coli ATCC25922 assessed as log reduction in microbial load at 8 times of MIC measured at 0.5 hr by time-kill kinetics assay; assay type: functional
# Escherichia coli [13] = assay: Antimicrobial activity against Escherichia coli ATCC25922 assessed as bacterial killing at 1 to 8 times of MIC measured upto 24 hrs by time-kill kinetics assay; assay type: functional, organism-based
# Candida albicans [14] = assay: Antimicrobial activity against Candida albicans ATCC10231 assessed as fungal killing at 1 to 8 times of MIC measured upto 24 hrs by time-kill kinetics assay; assay type: functional, organism-based
# Candida albicans [15] = assay: Induction of drug resistance in Candida albicans ATCC10231 assessed as change in MIC at sub-inhibitory concentration incubated for 21 to 22 passages; assay type: functional
# Cell membrane = assay: Disruption of membrane integrity in Staphylococcus aureus ATCC29213 assessed as red fluorescence at 8 times of MIC incubated for 2 hrs under dark condition by SYTO 9 and PI staining based laser confocal microscopy analysis
# Staphylococcus aureus [16] = assay: Antibiofilm activity against Staphylococcus aureus ATCC29213 assessed as inhibition of biofilm formation at 0.39 ug/mL incubated for 24 hrs by crystal violet staining based analysis relative to control; assay type: functional
# Staphylococcus aureus [17] = assay: Antibiofilm activity against Staphylococcus aureus ATCC29213 assessed as inhibition of biofilm formation at 0.78 ug/mL incubated for 24 hrs by crystal violet staining based analysis relative to control; assay type: functional
# Staphylococcus aureus [18] = assay: Antibiofilm activity against Staphylococcus aureus ATCC29213 assessed as inhibition of biofilm formation at 3.125 ug/mL incubated for 24 hrs by crystal violet staining based analysis relative to control; assay type: functional
# Escherichia coli [19] = assay: Antibiofilm activity against Escherichia coli ATCC25922 assessed as inhibition of biofilm formation at 0.39 ug/mL incubated for 24 hrs by crystal violet staining based analysis relative to control; assay type: functional
# Escherichia coli [20] = assay: Antibiofilm activity against Escherichia coli ATCC25922 assessed as inhibition of biofilm formation at 6.25 ug/mL incubated for 24 hrs by crystal violet staining based analysis relative to control; assay type: functional
# Staphylococcus aureus [21] = assay: Disruption of preformed biofilm in Staphylococcus aureus ATCC29213 assessed as residual preformed biofilm at 6.25 ug/mL incubated for 24 hrs by crystal violet staining based analysis relative to control; assay type: functional; conditions: dose 6.25 µg/ml
# Escherichia coli [22] = assay: Disruption of preformed biofilm in Escherichia coli ATCC25922 assessed as residual preformed biofilm at 0.78 ug/mL incubated for 24 hrs by crystal violet staining based analysis relative to control; assay type: functional; conditions: dose 0.78 µg/ml
# Escherichia coli [23] = assay: Disruption of preformed biofilm in Escherichia coli ATCC25922 assessed as residual preformed biofilm at 25 ug/mL incubated for 24 hrs by crystal violet staining based analysis relative to control; assay type: functional; conditions: dose 25 µg/ml
# [24] = Cytotoxicity against mouse J774.A1 cells assessed as viable cells at 3.125 ug/mL incubated for 24 hrs by CCK-8 assay relative to control; assay type: toxicity, cell-based; conditions: at 3.125 µg/mL, read-out: Activity
# [25] = Cytotoxicity against mouse NCTC clone 929 cells assessed as viable cells at 3.125 ug/mL incubated for 24 hrs by CCK-8 assay relative to control; assay type: toxicity, cell-based; conditions: NCTC clone 929 (L929) cells, at 3.125 µg/mL, read-out: Activity
# [26] = Cytotoxicity against mouse NCTC clone 929 cells assessed as viable cells at 6.25 ug/mL incubated for 24 hrs by CCK-8 assay relative to control; assay type: toxicity, cell-based; conditions: NCTC clone 929 (L929) cells, at 6.25 µg/mL, read-out: Activity
# [27] = Cytotoxicity against mouse NCTC clone 929 cells assessed as viable cells at 25 ug/mL incubated for 24 hrs by CCK-8 assay relative to control; assay type: toxicity, cell-based; conditions: NCTC clone 929 (L929) cells, at 25 µg/mL, read-out: Activity
# [28] = Cytotoxicity against mouse corneal epithelial cells assessed as viable cells at 3.125 ug/mL incubated for 24 hrs by CCK-8 assay relative to control; assay type: toxicity, cell-based, Corneal epithelial cell; conditions: at 3.125 µg/mL, read-out: Activity
# [29] = Cytotoxicity against mouse corneal epithelial cells assessed as viable cells at 6.25 ug/mL incubated for 24 hrs by CCK-8 assay relative to control; assay type: toxicity, cell-based, Corneal epithelial cell; conditions: at 6.25 µg/mL, read-out: Activity
# [30] = Cytotoxicity against mouse corneal epithelial cells assessed as viable cells at 50 ug/mL incubated for 24 hrs by CCK-8 assay relative to control; assay type: toxicity, cell-based, Corneal epithelial cell; conditions: at 50 µg/mL, read-out: Activity
# Pseudomonas aeruginosa = assay: In vivo antibacterial activity against Pseudomonas aeruginosa ATCC9027 infected in keratitis C57BL/6 mouse model assessed as log reduction in bacterial load at 0.5 % administered topically 4 times per day for 3 days; assay type: functional; conditions: time 3 day
SMILES,MIC (Candida albicans [1]),MIC (Staphylococcus aureus [2]),HC50 at 1 h [3],MIC (Acinetobacter baumannii),MIC (Klebsiella pneumoniae),MIC (Escherichia coli [4]),MIC (Candida albicans [5]),MIC (Staphylococcus aureus [6]),MIC (Candida albicans [7]),MIC (Candida albicans [8]),MIC (Staphylococcus aureus [9]),MIC (Candida albicans [10]),MIC (Staphylococcus aureus [11]),log(activity) (Escherichia coli [12]),Activity (Escherichia coli [13]),Activity (Candida albicans [14]),Activity (Candida albicans [15]),Activity (Cell membrane),inhibition at 0.39 µg/mL (Staphylococcus aureus [16]),inhibition at 0.78 µg/mL (Staphylococcus aureus [17]),other results
CC(C)=CCN1CCCc2cc(OCCCCCCCCNC(=N)N)ccc21,0.78 µg/mL,0.78 µg/mL,> 200 µg/mL,3.12 µg/mL,3.12 µg/mL,3.12 µg/mL,0.78 µg/mL,0.78 µg/mL,0.78 µg/mL,0.78 µg/mL,0.78 µg/mL,1.56 µg/mL,0.78 µg/mL,>3,Dose-Dependent Effect,Dose-Dependent Effect,inactive,Active,50.2%,93.6%,"inhibition at 3.125 µg/mL (Staphylococcus aureus [18]): 100%; inhibition at 0.39 µg/mL (Escherichia coli [19]): 13.5%; inhibition at 6.25 µg/mL (Escherichia coli [20]): 101%; Activity (Staphylococcus aureus [21]): 10.5%; Activity (Escherichia coli [22]): 96.08%; Activity (Escherichia coli [23]): 4.34%; viability at 24 h, 3.125 ug/mL [24]: 99.5%; viability at 24 h, 3.125 ug/mL [25]: 95.5%; viability at 24 h, 6.25 ug/mL [26]: 91.2%; viability at 24 h, 25 ug/mL [27]: 77.9%; viability at 24 h, 3.125 ug/mL [28]: 99.7%; viability at 24 h, 6.25 ug/mL [29]: 93.6%; viability at 24 h, 50 ug/mL [30]: 36.3%; log(activity) (Pseudomonas aeruginosa): 3.4"
CCCCCCCCCN1CCCc2cc(OCCCCNC(=N)N)ccc21,0.78 µg/mL,1.56 µg/mL,> 200 µg/mL,3.12 µg/mL,1.56 µg/mL,1.56 µg/mL,1.56 µg/mL,0.78 µg/mL,1.56 µg/mL,0.78 µg/mL,0.78 µg/mL,1.56 µg/mL,0.78 µg/mL,>3,Dose-Dependent Effect,Dose-Dependent Effect,inactive,Active,65.2%,91%,"inhibition at 3.125 µg/mL (Staphylococcus aureus [18]): 102%; inhibition at 0.39 µg/mL (Escherichia coli [19]): 21.6%; inhibition at 6.25 µg/mL (Escherichia coli [20]): 100%; Activity (Staphylococcus aureus [21]): 4.69%; Activity (Escherichia coli [22]): 93.41%; Activity (Escherichia coli [23]): 1.67%; viability at 24 h, 3.125 ug/mL [24]: 98.3%; viability at 24 h, 3.125 ug/mL [25]: 95.5%; viability at 24 h, 6.25 ug/mL [26]: 92.1%; viability at 24 h, 25 ug/mL [27]: 72.9%; viability at 24 h, 3.125 ug/mL [28]: 95.3%; viability at 24 h, 6.25 ug/mL [29]: 88.9%; viability at 24 h, 50 ug/mL [30]: 8.36%; log(activity) (Pseudomonas aeruginosa): 3.2"
